Data as given in US8288429B2, “2-aza-bicyclo[3.3.0]octane derivatives” (Actelion Pharmaceuticals Ltd., priority 2007, dated 2012).
Like-named read-outs stand apart in the source and are kept apart here.

Assays:
human orexin-2 receptor = biological target: T1, human orexin-2 receptor (Homo sapiens, UniProt O43614); assay: Intracellular calcium measurement (FLIPR), orexin-A induced response in CHO cells expressing the human orexin-2 receptor; format: cell-based; details: 3 nM orexin-A as agonist
T1 construct: expressed in transfected cells; host or cells: CHO cells (selected with G418)
T1 sequence (O43614 1-444): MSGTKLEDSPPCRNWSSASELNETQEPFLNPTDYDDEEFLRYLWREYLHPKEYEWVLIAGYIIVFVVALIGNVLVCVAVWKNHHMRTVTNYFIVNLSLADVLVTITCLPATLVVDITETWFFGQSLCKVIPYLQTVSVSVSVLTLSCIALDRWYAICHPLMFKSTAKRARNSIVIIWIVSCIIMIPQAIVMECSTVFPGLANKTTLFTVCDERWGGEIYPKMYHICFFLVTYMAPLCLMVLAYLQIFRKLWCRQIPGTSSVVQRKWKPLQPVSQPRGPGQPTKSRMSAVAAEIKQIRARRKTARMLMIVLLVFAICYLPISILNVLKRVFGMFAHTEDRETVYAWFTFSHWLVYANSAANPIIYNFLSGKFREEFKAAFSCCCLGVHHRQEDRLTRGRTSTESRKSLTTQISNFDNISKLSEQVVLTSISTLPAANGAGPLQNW
Procedure: (§1) The orexin receptor antagonistic activity of the compounds of formula (I) is determined in accordance with the following experimental method.
(§2) Intracellular Calcium Measurements:
(§3) Chinese hamster ovary (CHO) cells expressing the human orexin-1 receptor and the human orexin-2 receptor, respectively, are grown in culture medium (Ham F-12 with L-Glutamine) containing 300 μg/ml G418, 100 U/ml penicillin, 100 μg/ml streptomycin and 10% heat inactivated fetal calf serum (FCS). The cells are seeded at 20,000 cells/well into 384-well black clear bottom sterile plates (Greiner). The seeded plates are incubated overnight at 37° C. in 5% CO2.
(§4) Human orexin-A as an agonist is prepared as 1 mM stock solution in MeOH: water (1:1), diluted in HBSS containing 0.1% bovine serum albumin (BSA), NaHCO3: 0.375 g/l and 20 mM HEPES for use in the assay at a final concentration of 3 nM.
(§5) Antagonists are prepared as 10 mM stock solution in DMSO, then diluted in 384-well plates using DMSO followed by a transfer of the dilutions into in HBSS containing 0.1% bovine serum albumin (BSA), NaHCO3: 0.375 g/l and 20 mM HEPES. On the day of the assay, 50 μl of staining buffer (HBSS containing 1% FCS, 20 mM HEPES, NaHCO3: 0.375 g/l, 5 mM probenecid (Sigma) and 3 μM of the fluorescent calcium indicator fluo-4 AM (1 mM stock solution in DMSO, containing 10% pluronic) is added to each well. The 384-well cell-plates are incubated for 50 min at 37° C. in 5% CO2 followed by equilibration at rt for 30-120 min before measurement.
(§6) Within the Fluorescent Imaging Plate Reader (FLIPR2 or FLIPR Tetra, Molecular Devices), antagonists are added to the plate in a volume of 10 μl/well, incubated for 10 min and finally 10 μl/well of agonist is added. Fluorescence is measured for each well at 1 second intervals, and the height of each fluorescence peak is compared to the height of the fluorescence peak induced by 3 nM orexin-A with vehicle in place of antagonist. For each antagonist, the IC50 value (the concentration of compound needed to inhibit 50% of the agonistic response) is determined. The calculated IC50 values of the compounds may fluctuate depending on the daily cellular assay performance. Fluctuations of this kind are known to those skilled in the art.

human orexin-1 receptor = biological target: T2, human orexin-1 receptor (Homo sapiens, UniProt O43613); assay: Intracellular calcium measurement (FLIPR), orexin-A induced response in CHO cells expressing the human orexin-1 receptor; format: cell-based; details: 3 nM orexin-A as agonist
T2 construct: expressed in transfected cells; host or cells: CHO cells (selected with G418)
T2 sequence (O43613 1-425): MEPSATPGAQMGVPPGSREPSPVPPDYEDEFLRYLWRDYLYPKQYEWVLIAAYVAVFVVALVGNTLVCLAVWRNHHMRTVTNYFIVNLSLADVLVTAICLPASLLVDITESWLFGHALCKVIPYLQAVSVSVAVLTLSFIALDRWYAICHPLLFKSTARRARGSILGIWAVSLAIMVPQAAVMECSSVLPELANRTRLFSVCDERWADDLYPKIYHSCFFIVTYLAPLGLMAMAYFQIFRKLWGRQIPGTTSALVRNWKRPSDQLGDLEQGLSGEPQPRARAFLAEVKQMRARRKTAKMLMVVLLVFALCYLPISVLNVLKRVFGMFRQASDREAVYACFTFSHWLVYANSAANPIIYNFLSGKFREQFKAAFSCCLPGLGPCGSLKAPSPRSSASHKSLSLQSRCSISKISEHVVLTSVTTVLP
Procedure: as §1, §2, §3, §4, §5, §6

[1] = measured using FLIPR2, read-out: OX2 IC50
[2] = measured using FLIPR2, read-out: OX1 IC50
[3] = measured using FLIPR Tetra (footnote 1), read-out: OX2 IC50
[4] = measured using FLIPR Tetra (footnote 1), read-out: OX1 IC50

Row | Structure (SMILES) | IC50 (human orexin-2 receptor; [1]) [nM] | IC50 (human orexin-1 receptor; [2]) [nM] | IC50 (human orexin-2 receptor; [3]) [nM] | IC50 (human orexin-1 receptor; [4]) [nM]
1 | Cc1nc(C(=O)N2[C@H](CNC(=O)c3noc4ccccc34)C[C@@H]3CCC[C@@H]32)c(-c2cccc(Cl)c2)s1 [Example 9, Benzo[d]isoxazole-3-carboxylic acid {(1S,3S,5S)-2-[5-(3-chloro-phenyl)-2-methyl-thiazole-4-carbonyl]-2-azabicyclo[3.3.0]octane-3-ylmethyl}-amide] | 283 | 275 |  | 
2 | Cc1nc(C(=O)N2[C@H](CNC(=O)c3cccc4c3CCO4)C[C@@H]3CCC[C@@H]32)c(-c2ccc(F)c(Br)c2)s1 [Example 19, 2,3-Dihydro-benzofuran-4-carboxylic acid {(1S,3S,5S)-2-[5-(3-bromo-4-fluoro-phenyl)-2-methyl-thiazole-4-carbonyl]-2-azabicyclo[3.3.0]octane-3-ylmethyl}-amide] |  |  | 32 | 37
3 | O=C(NC[C@@H]1C[C@@H]2CCC[C@@H]2N1C(=O)c1nc(C2CC2)sc1-c1ccccc1)c1cccc2c1CCO2 [Example 26, 2,3-Dihydro-benzofuran-4-carboxylic acid [(1S,3S,5S)-2-(2-cyclopropyl-5-phenyl-thiazole-4-carbonyl)-2-azabicyclo[3.3.0]octane-3-ylmethyl]-amide] |  |  | 41 | 48

Second part, the molecule after the results:

Row | IC50 (human orexin-2 receptor; [1]) [nM] | IC50 (human orexin-1 receptor; [2]) [nM] | IC50 (human orexin-2 receptor; [3]) [nM] | IC50 (human orexin-1 receptor; [4]) [nM] | Structure (SMILES)
4 | 40 | 17 |  |  | Cc1ccc(-c2sc(C)nc2C(=O)N2[C@H](CNC(=O)c3c(C)nc4sccn34)C[C@@H]3CCC[C@@H]32)cc1 [Example 1, 6-Methyl-imidazo[2,1-b]thiazole-5-carboxylic acid [(1S,3S,5S)-2-(2-methyl-5-p-tolyl-thiazole-4-carbonyl)-2-azabicyclo[3.3.0]octane-3-ylmethyl]-amide]
5 |  |  | 12 | 11 | Cc1nc(C(=O)N2[C@H](CNC(=O)c3cccc4c3CCO4)C[C@@H]3CCC[C@@H]32)c(-c2cccc(C(F)(F)F)c2)s1 [Example 16, 2,3-Dihydro-benzofuran-4-carboxylic acid {(1S,3S,5S)-2-[2-methyl-5-(3-trifluoromethyl-phenyl)-thiazole-4-carbonyl]-2-azabicyclo[3.3.0]octane-3-ylmethyl}-amide]
6 | 95 | 18 |  |  | Cc1nc2sccn2c1C(=O)NC[C@@H]1C[C@@H]2CCC[C@@H]2N1C(=O)c1nc(C2CC2)sc1-c1cccc(C(F)(F)F)c1 [Example 7, 6-Methyl-imidazo[2,1-b]thiazole-5-carboxylic acid {(1S,3S,5S)-2-[2-cyclopropyl-5-(3-trifluoromethyl-phenyl)-thiazole-4-carbonyl]-2-azabicyclo[3.3.0]octane-3-ylmethyl}-amide]
